Results reported in US4397860A, “Benzodioxanyl imidazoline compounds, compositions and use” (Reckitt & Colman Products Limited, priority 1981, dated 1983).
Counter-ions that a name gives are not always drawn.

System: presynaptic α2-adrenoreceptors
Assay: not given
Details: from G.B. 2,068,376A / U.S. Ser. No. 230,195; cited from earlier work

Q: Which “selectivity in blocking presynaptic α2-adrenoreceptors (in words)” value does the source give for `c1ccc2c(c1)OCC(C1=NCCN1)O2` (stereo not drawn) [formula A, 2-[2-(1,4-benzodioxanyl)]-2-imidazoline] here?
A: high degree of selectivity in blocking presynaptic α2 -adrenoreceptors

Target: T1, pre-synaptic α2-adrenoreceptor (Mus musculus, UniProt Q01338)
T1 construct: from tissue; host or cells: mouse vas deferens
T1 sequence (Q01338 1-465): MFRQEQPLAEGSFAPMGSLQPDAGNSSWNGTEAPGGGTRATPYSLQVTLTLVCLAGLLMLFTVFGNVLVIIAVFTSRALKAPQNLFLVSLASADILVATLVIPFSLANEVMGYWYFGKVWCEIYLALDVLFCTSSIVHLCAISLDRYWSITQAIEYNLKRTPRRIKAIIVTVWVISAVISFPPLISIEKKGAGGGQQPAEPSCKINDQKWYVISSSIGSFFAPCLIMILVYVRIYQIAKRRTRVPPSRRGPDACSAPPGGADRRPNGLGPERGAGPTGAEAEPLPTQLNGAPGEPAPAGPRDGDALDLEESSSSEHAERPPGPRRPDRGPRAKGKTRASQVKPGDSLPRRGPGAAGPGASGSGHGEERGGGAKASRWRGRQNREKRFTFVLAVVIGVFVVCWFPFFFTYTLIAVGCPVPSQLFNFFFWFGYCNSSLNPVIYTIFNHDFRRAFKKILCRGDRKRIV
Assay: Pre-synaptic α2-adrenoreceptor agonist activity, mouse vas deferens (inhibition of twitch responses)
Set-up: key: I.A.: inactive
Details: potency relative to clonidine = 1
Procedure: The pharmacological activity of the compound of Example 1 (in formula I R^1 =methyl) has been compared with the activities of the isomeric compounds in which the methyl group is situated at differing positions in formula A. The procedures involved the measurement of agonist or antagonist activity at pre- and post-synaptic α-adrenoreceptors.
In the procedures outlined below agonist potency of the compounds was determined with respect to standard agents whereas antagonist potency was related to that of the compound of formula A. Pre- and post-synaptic studies were carried out in the mouse vas deferens and rat anococcygeus muscle respectively.
Pre-synaptic studies (α2)
The mouse vas deferens was stimulated at low frequency (0.1 Hz) and the "twitch" responses recorded. Pre-synaptic α2 -adrenoreceptor agonist activity was determined by assessing the ability of compounds to inhibit these contractions. When inhibition was seen the potency of the individual compounds was related to that of the standard α2 -adrenoreceptor agonist clonidine.

Q: With `Cc1cccc2c1OC(C1=NCCN1)CO2` (stereo not drawn) [Example 8-methyl] as the compound, how does the “α2 potency: Agonism” value read?
A: 0.01

Q: For `Cc1cccc2c1OCC(C1=NCCN1)O2` (stereo not drawn) [Example 5-methyl], which “α2 potency: Agonism” value is on record?
A: 0.1

Q: Which “α2 potency: Agonism” value does the source give for `Cc1ccc2c(c1)OC(C1=NCCN1)CO2` (stereo not drawn) [Example 7-methyl] here?
A: I.A.

Q: With `Cc1ccc2c(c1)OCC(C1=NCCN1)O2` (stereo not drawn) [Example 6-methyl] as the compound, how does the “α2 potency: Agonism” value read?
A: I.A.

Q: For `CC1(C2=NCCN2)COc2ccccc2O1` (stereo not drawn) [Example 1, 2-[2-(2-Methyl-1,4-benzodioxanyl)]-2-imidazoline hydrochloride], which “α2 potency: Agonism” value is on record?
A: I.A.

Q: Which “α2 potency: Agonism” value does the source give for `CN1CCN=C1C1COc2ccccc2O1` (stereo not drawn) [3^1 -methyl] here?
A: I.A.

Q: For `CC1Oc2ccccc2OC1C1=NCCN1` (stereo not drawn) [Example 3-methyl], which “α2 potency: Agonism” value is on record?
A: I.A.

Target: T2, postsynaptic α1-adrenoreceptor (Rattus norvegicus, UniProt P43140)
T2 construct: the rat anococcygeus muscle is used to establish postsynaptic α1 -adrenoreceptor activity; from tissue; host or cells: rat anococcygeus muscle
T2 sequence (P43140 1-466): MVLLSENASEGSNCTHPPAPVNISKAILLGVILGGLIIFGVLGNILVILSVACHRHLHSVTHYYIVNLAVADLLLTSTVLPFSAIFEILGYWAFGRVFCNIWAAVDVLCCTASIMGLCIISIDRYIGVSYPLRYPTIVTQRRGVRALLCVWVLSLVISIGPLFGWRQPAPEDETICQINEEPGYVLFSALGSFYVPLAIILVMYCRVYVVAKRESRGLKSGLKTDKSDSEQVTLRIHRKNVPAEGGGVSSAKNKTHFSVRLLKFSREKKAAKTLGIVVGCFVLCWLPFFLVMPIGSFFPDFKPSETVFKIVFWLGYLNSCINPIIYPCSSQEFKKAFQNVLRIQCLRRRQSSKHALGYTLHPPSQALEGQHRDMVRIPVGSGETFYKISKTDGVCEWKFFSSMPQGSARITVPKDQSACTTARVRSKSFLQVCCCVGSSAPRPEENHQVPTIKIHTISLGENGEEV
Assay: Post-synaptic α1-adrenoreceptor antagonist activity, rat anococcygeus muscle (noradrenaline-induced contractions)
Details: not given

Q: With `CN1CCN=C1C1COc2ccccc2O1` (stereo not drawn) [3^1 -methyl] as the compound, how does the “α1 potency: Antagonism” value read?
A: 1.0

Same assay, conditions: rat anococcygeus muscle vs noradrenaline, dose-ratio of 2; […]

Q: Which “α1 potency: Antagonism” value does the source give for `Cc1ccc2c(c1)OC(C1=NCCN1)CO2` (stereo not drawn) [Example 7-methyl] here?
A: 0.125

Q: With `Cc1ccc2c(c1)OCC(C1=NCCN1)O2` (stereo not drawn) [Example 6-methyl] as the compound, how does the “α1 potency: Antagonism” value read?
A: < 0.11

Q: Which “α1 potency: Antagonism” value does the source give for `CC1(C2=NCCN2)COc2ccccc2O1` (stereo not drawn) [Example 1, 2-[2-(2-Methyl-1,4-benzodioxanyl)]-2-imidazoline hydrochloride] here?
A: 0.28

Q: For `CC1Oc2ccccc2OC1C1=NCCN1` (stereo not drawn) [Example 3-methyl], which “α1 potency: Antagonism” value is on record?
A: < 0.023

Same assay, conditions: rat anococcygeus muscle vs noradrenaline; 20ng/ml

Q: With `Cc1cccc2c1OCC(C1=NCCN1)O2` (stereo not drawn) [Example 5-methyl] as the compound, how does the “α1 potency: Antagonism (result in words)” value read?
A: Potentiation

System: pre-synaptic α2-adrenoreceptor
Assay: Pre-synaptic α2-adrenoreceptor antagonist activity, mouse vas deferens (reversal of clonidine inhibition)
Details: Table 3
Procedure: In the antagonist studies the same experimental conditions were used except that the twitch response was suppressed by including clonidine (30 ng/ml) in the physiological solution.

Q: Which “selectivity relative to the compound of formula A (in words)” value does the source give for `CC1(C2=NCCN2)COc2ccccc2O1` (stereo not drawn) [Example 1, 2-[2-(2-Methyl-1,4-benzodioxanyl)]-2-imidazoline hydrochloride] here?
A: rather more than twice as selective as the compound of formula A

Same assay, conditions: selectivity relative to the compound of formula A; mouse vas deferens / rat anococcygeus

Q: With `Cc1ccc2c(c1)OC(C1=NCCN1)CO2` (stereo not drawn) [Example 7-methyl] as the compound, how does the α2/α1 selectivity read?
A: 0.64

Q: For `Cc1ccc2c(c1)OCC(C1=NCCN1)O2` (stereo not drawn) [Example 6-methyl], which α2/α1 selectivity is on record?
A: 0.7

Q: For `CC1(C2=NCCN2)COc2ccccc2O1` (stereo not drawn) [Example 1, 2-[2-(2-Methyl-1,4-benzodioxanyl)]-2-imidazoline hydrochloride], which α2/α1 selectivity is on record?
A: 2.4

Q: Which α2/α1 selectivity does the source give for `CN1CCN=C1C1COc2ccccc2O1` (stereo not drawn) [3^1 -methyl] here?
A: 0.003

Target: T2, postsynaptic α1-adrenoreceptor
Assay: Postsynaptic α1-adrenoreceptor antagonism vs noradrenaline contractions, isolated rat anococcygeus muscle
Details: mean of minimum 5 experiments, read-out: Postsynaptic antagonism pA2 vs Noradrenaline (anococcygeus) (converted)

Q: With `CC1(C2=NCCN2)COc2ccccc2O1` (stereo not drawn) [Example 1, 2-[2-(2-Methyl-1,4-benzodioxanyl)]-2-imidazoline hydrochloride] as the compound, how does the Kb read?
A: 2510 nM

Target: T2, postsynaptic α1-adrenoreceptor
Assay: Post-synaptic α1-adrenoreceptor agonist activity, rat anococcygeus muscle (contractions)
Set-up: key: I.A.: inactive
Details: potency relative to phenylephrine = 1

Q: For `Cc1cccc2c1OC(C1=NCCN1)CO2` (stereo not drawn) [Example 8-methyl], which “α1 potency: Agonism” value is on record?
A: 2.1

Q: For `Cc1cccc2c1OCC(C1=NCCN1)O2` (stereo not drawn) [Example 5-methyl], which “α1 potency: Agonism” value is on record?
A: 1.0

Q: Which “α1 potency: Agonism” value does the source give for `Cc1ccc2c(c1)OC(C1=NCCN1)CO2` (stereo not drawn) [Example 7-methyl] here?
A: 0.004

Q: Which “α1 potency: Agonism” value does the source give for `Cc1ccc2c(c1)OCC(C1=NCCN1)O2` (stereo not drawn) [Example 6-methyl] here?
A: I.A.

Q: Which “α1 potency: Agonism” value does the source give for `CC1(C2=NCCN2)COc2ccccc2O1` (stereo not drawn) [Example 1, 2-[2-(2-Methyl-1,4-benzodioxanyl)]-2-imidazoline hydrochloride] here?
A: I.A.

Q: For `CN1CCN=C1C1COc2ccccc2O1` (stereo not drawn) [3^1 -methyl], which “α1 potency: Agonism” value is on record?
A: I.A.

Q: Which “α1 potency: Agonism” value does the source give for `CC1Oc2ccccc2OC1C1=NCCN1` (stereo not drawn) [Example 3-methyl] here?
A: I.A.
